Where two headings read alike, the source gives them in different places.
Tests used:
[1] = test system: Bifidobacterium; assay: Example 4: improvement of enterobacterial flora in germfree mice, proportion of Bifidobacterium; assay type: in vivo; settings: orally administered for 5 days
Description: In this Example 4, the effect of improving the enterobacterial flora of each composition composed of fructooligosaccharide was compared, using germfree mice. The fructooligosaccharide is composed of kestose (trisaccharide), nystose (tetrasaccharide) and F-nystose (pentasaccharide). The kestose used in this Example 4 is composed of 1-kestose (99.0%), nystose (0.5%) and sucrose (0.5%). The nystose is composed of nystose (99.0%), 1-kestose (0.9%) and sucrose (0.1 %). The F-nystose is composed of F-nystose (82.0%), other pentasaccharides (13.0%) and other components (5.0%). Additionally, control groups of mice dosed with sterile water and dosed with usual fructooligosaccharide (1-kestose: 35.8 weight %, nystose: 50.9 weight %, F-nystose: 8.5 weight %) were prepared and their data were obtained for comparison. […] Each oligosaccharide was orally administered to germfree mice for 5 days to determine the proportion of Bifidobacterium proliferated to total bacterial count.

[2] = Volunteer experiment on bowel movement, daily dose 2g; assay type: in vivo, human; settings: daily dose of 2g; volunteer subjects
Description: (§1) According to the results of each above-mentioned Example, it was confirmed that an adult can have the effect of 1-kestose as prebiotics with a daily dose of 3g. […] The subjects were 4 health adult males whose age ranges from 38 to 56. The subject A is 67kg, subject B is 56kg, subject C is 59kg and subject D is 63kg in weight.

[3] = test system: anti-OVA IgG1; assay: Example 2: oral immune tolerance, serum anti-OVA IgG1 by ELISA in human-flora associated mice; assay type: in vivo; settings: 1-kestose-administered group, 41 without 1-kestose, germfree mice 1583
Description: (§2) In Example 2, to examine the effect of 1-kestose on the production of IgG1 and IgE, 1-kestose was administered to germfree […] to measure IgG1 and IgE amounts in the serum before and after giving 1-kestose.
(§3) In this Example 2, the mice used in the experiment were male […] with 4 weeks of age born and grown in a germfree condition (BALB/c), with 10 to 15 rats as a group. These mice were orally provided with 0.5ml of a liquid obtained by diluting feces of human infants 100 times and observed in a germfree condition for two weeks. Afterward, 5mg of ovalbumin (OVA) was orally administered to the mice for 4 days. To examine the existence of immune tolerance, a liquid obtained by adding 0.1 mg of aluminum hydroxide gel to 1 µg of OVA was injected into the abdominal cavity, 1, 3, 5 and 7 weeks after orally administering OVA. These human-flora associated mice were separated into 1-kestose-administered group and non-administered control group and anti-OVA IgG1 and anti-OVA IgE in the serum were measured by ELISA method, 9 weeks after administering 1-kestose.

[4] = test system: Bifidobacterium; assay: Example 6: effective amount of 1-kestose, Bifidobacterium count in feces; assay type: in vivo, human; settings: for minimal effective dose: Bifidobacterium, po, read-out: effective amount of 1-kestose per 1kg body weight
Description: as §1
In the experiment, feces were first collected from each subject before taking 1-kestose, and counts of Bifidobacterium, Lactobacillus, Clostridium and total bacteria were measured. Then, they took 1g of 1-kestose once a day for 2 weeks. 15 days later, feces were collected from each subject to measure intestinal bacteria. Afterward, they took no 1-kestose for one week. From the 22nd day, they took 3g of 1-kestose once a day for two weeks, and feces were collected from each subject on the 36th day to measure intestinal bacteria. Figure 13 and Figure 14 show the results.

[5] = test system: infants with atopic dermatitis; assay: Example 7: clinical test in infants with atopic dermatitis, eruption severity; assay type: in vivo, human
Description: (§4) The test subjects were 13 infants with atopic dermatitis and mild and severe eruption (age: 0 to 3 years old) in which food allergic symptoms were accompanied. The test was approved by parents of the subjects.
(§5) In the clinical test, the subjects were kept under observation for 2 weeks and they took 1-kestose with a purity of 98% mixed with water or juice once a day for 12 weeks. The subjects at age 1 or under were provided with 1g of 1-kestose a day and those at age 2 to 3 took 2g of 1-kestose a day. The test subjects used no external preparation of steroid for one month or more before taking 1-kestose. During the test, the subjects were treated mainly with a humectant and took food allergen removing food.
(§6) The subjects were diagnosed at the start of, 6 and 12 weeks after taking 1-kestose, and 4 to 8 weeks after the intake completion to assess the clinical test results (examination of dermis severity and stool samples). The inspection 4 to 8 weeks after the intake completion was aimed at examining drug efficacy sustaining effect. In the stool sample inspection, feces were collected form the subjects to calculate bifidobacterial occupancy in the feces. The eruption severity was examined using Severity Determination Method by Region of Severity Discussion Committee of Japanese Dermatological Association, in which by separating the entire body into 5 regions: head, anterior and posterior parts of the trunk, upper and lower extremities, the sum of comprehensive assessments is calculated in each region (on 0 to 4 scales).

[6] = test system: IgA; assay: Example 1: IgA in feces by ELISA before and after taking 1-kestose; assay type: in vivo, human
Description: (§7) The composition, containing 1-kestose used in this Example 1, is of a 1-kestose purity of 98%, composed of 1-kestose (98 weight %), nystose (1.0 weight %) and sucrose (1.0 weight %). An allergy-suppressive composition, having 1-kestose as an active ingredient, was given to 4 adult males having allergic symptoms, with each dose of 3g for one month. The feces before and after the composition was taken were collected to measure IgA and intestinal bacteria in the feces.
To measure IgA, the collected feces were diluted 20 times with phosphate buffered saline (PBS) and supernatant was collected by a centrifugal separator. Then, the liquid was diluted 10 times with water to make a sample for measurement. Also, an anti-human IgA mouse monoclonal antibody (product of Nacalai Tesque Inc.), and a horseradish peroxidase (HRP)-labeled antibody by labeling the antihuman IgA mouse monoclonal antibody with HRP were prepared. Afterward, IgA was measured using ELISA method.

[7] = test system: nonspecific IgE; assay: Example 3: nonspecific IgE in human serum before and after taking 1-kestose; assay type: in vivo; settings: adult with allergic symptoms, 3g for one month, standard value 366
Description: In this Example 3, to examine the effect of 1-kestose on IgE amount in the human serum, the subjects were given 1-kestose to measure nonspecific IgE amount in the serum before and after taking 1-kestose.

[8] = Example 6: 1-kestose intake with no side effect (diarrhea, organs, blood); set-up: species or system human; settings: in vivo
Description: Meanwhile, the 1-kestose intake with no side effect was examined.

[9] = in vivo
Description: The subjects were 2 volunteer patients with allergic symptoms (adult male and female each). They took 3g of 1-kestose for one month and blood components like nonspecific IgE in the serum were examined.

[10] = test system: Bifidobacterium; assay: Example 7: clinical test, bifidobacterial occupancy in feces; assay type: in vivo, human; settings: before 30.1 %
Description: as §4, §5, §6

[11] = test system: nonspecific IgE; assay: Example 5: nonspecific IgE after 1-kestose and after fructooligosaccharide intake; assay type: in vivo, human
Description: In this Example 5, the subjects were 4 adult females (from 27 to 45 years old) with daily allergic symptoms. They took 1-kestose and fructooligosaccharide and nonspecific IgE of each subject was measured. In this experiment, nonspecific IgE before taking the substances was measured and then the subjects took 3g of 1-kestose after eating once a day for 4 weeks. The blood was collected 5 weeks later to measure nonspecific IgE and afterward they took no substances for 2 weeks. Then, the subjects took 3g of fructooligosaccharide after eating once a day for 4 weeks and the blood was collected. The 1-kestose used in this Example 5 has a purity of 95% or more, and the commercially-available fructooligosaccharide is a nystose-dominant oligosaccharide composed of nystose (51 %) and 1-kestose (36%). In the experiment, the subjects took less health foods like prebiotics and probiotics containing other oligosaccharides and Lactobacillus.

[12] = test system: Bifidobacterium; assay: Example 1: intestinal bacteria in feces, anaerobic plate culture (Bifidobacterium); assay type: in vivo, human; settings: after 3g for one month
Description: as §7
Meanwhile, to measure intestinal bacteria, a sample liquid for measurement was dripped on a flat-plate agar medium by 0.05ml and applied thereon. After anaerobic culture of the sample at 35°C for 3 to 5 days, the bacteria were identified and bacterial count was found.

[13] = test system: anti-OVA IgE; assay: Example 2: oral immune tolerance, serum anti-OVA IgE by ELISA in human-flora associated mice; assay type: in vivo; settings: 1-kestose-administered group, 204 without 1-kestose, germfree mice 496
Description: as §2, §3

[14] = assay type: in vivo, human; settings: many subjects; 1g or 2g a day for 12 weeks
Description: as §5, with “The test subjects were 13 infants with atopic dermatitis and mild and severe eruption (age: 0 to 3 years old) in which food allergic symptoms were accompanied. The test was approved by parents of the subjects. In” for “In”

OC[C@H]1O[C@@](CO)(OC[C@@]2(OC[C@@]3(O[C@H]4O[C@H](CO)[C@@H](O)[C@H](O)[C@H]4O)O[C@H](CO)[C@@H](O)[C@@H]3O)O[C@H](CO)[C@@H](O)[C@@H]2O)[C@@H](O)[C@@H]1O [nystose]
proportion of Bifidobacterium proliferated to total bacterial count [1]: 7.94%

OC[C@H]1O[C@@](CO)(OC[C@@]2(O[C@H]3O[C@H](CO)[C@@H](O)[C@H](O)[C@H]3O)O[C@H](CO)[C@@H](O)[C@@H]2O)[C@@H](O)[C@@H]1O [1-kestose]
effect on bowel movement [2]: improving bowel movement | anti-OVA IgG1 in the serum [3]: 31 unit/ml | minimal effective dose ([4]; mean value): 16 mg/kg | minimal effective dose ([4]; subject A (67kg)): 15 mg/kg | minimal effective dose ([4]; subject B (56kg)): 18 mg/kg | minimal effective dose ([4]; subject C (59kg)): 17 mg/kg | minimal effective dose ([4]; subject D (63kg)): 16 mg/kg | effective 1-kestose amount ([4]; adult with a weight of at least 60kg): 1 g per day | eruption (dermis severity, Japanese Dermatological Association method by region) ([5]; 13 infants 0 to 3 years, 1g or 2g a day for 12 weeks, p 0.0022 start vs 12 weeks, p 0.0025 start vs 4 to 8 weeks after completion): significant improvement in eruption | number of subjects with no deterioration or recurrence of eruption ([5]; of 11 subjects, 4 to 8 weeks after taking 1-kestose for 12 weeks): Seven | number of subjects who completely removed eruption ([5]; of 13 subjects, 4 to 8 weeks after taking 1-kestose for 12 weeks): 6 | increase of mean IgA concentration in feces ([6]; after vs before taking 3g for one month): ≥ 1.7 times | mean IgA concentration in feces ([6]; mean of 4 adult males with allergic symptoms, 3g for one month, 0.61 before taking): 1.06 µg/mL | increase of IgA concentration in feces ([6]; subjects A to C, 3g for one month): twice or more | nonspecific IgE in the serum ([7]; before 381): 313 IU/ml | nonspecific IgE in the serum ([7]; before 505): 354 IU/ml | 1-kestose intake with no side effect ([8]; human, po): ≤ 400 mg/kg/day | diarrhea [8]: no diarrhea | diarrhea symptoms [8]: no diarrhea symptoms | effect on organs and blood component [8]: no effect on organs and blood component | proportion of Bifidobacterium proliferated to total bacterial count [1]: 12.59% | C-reactive protein (CRP) value [9]: negative | effect on hepatic functions, other organs and blood components [9]: no effect on hepatic functions, etc., other organs and blood components | mean bifidobacterial occupancy in feces ([10]; 4 to 8 weeks after completion of 12 weeks intake): 32.7% | mean bifidobacterial occupancy in feces ([10]; 9 subjects, 6 weeks after taking): 42.3% | mean bifidobacterial occupancy in feces ([10]; 9 subjects, 12 weeks after taking, p 0.0308 vs start): 56.0% | mean nonspecific IgE ([11]; mean of 4 adult females, 3g once a day for 4 weeks, before 403.8): 298.8 IU/ml | decrease in mean nonspecific IgE ([11]; mean of 4 subjects, vs before taking): approximately 26% | nonspecific IgE ([11]; subject A, 3g once a day for 4 weeks, before 541): 298 IU/ml | decrease in nonspecific IgE ([11]; subject A, vs before taking): approximately 45% | nonspecific IgE ([11]; subject B, 3g once a day for 4 weeks, before 422): 282 IU/ml | decrease in nonspecific IgE ([11]; subject B, vs before taking): ≥ 32% | nonspecific IgE ([11]; subject C as printed, 3g once a day for 4 weeks, before 323): 275 IU/ml | decrease in nonspecific IgE ([11]; subject C as printed, vs before taking): approximately 25% | increase in nonspecific IgE ([11]; subject C, vs before taking): about 3% | mean bifidobacterial occupancy relative to the total bacterial count ([12]; mean, before 19.97%): 43.05% | bifidobacterial occupancy relative to the total bacterial count ([12]; subject A, before 11.67%): 52.38% | bifidobacterial occupancy relative to the total bacterial count ([12]; subject B, before 38.57%): 57.14% | anti-OVA IgE in the serum [13]: 156 unit/ml | bowel movement [14]: improved bowel movement

OC[C@H]1O[C@@](CO)(OC[C@@]2(OC[C@@]3(OC[C@@]4(O[C@H]5O[C@H](CO)[C@@H](O)[C@H](O)[C@H]5O)O[C@H](CO)[C@@H](O)[C@@H]4O)O[C@H](CO)[C@@H](O)[C@@H]3O)O[C@H](CO)[C@@H](O)[C@@H]2O)[C@@H](O)[C@@H]1O [F-nystose]
proportion of Bifidobacterium proliferated to total bacterial count [1]: 7.94%

Reference: EP1878738A1, “ALLERGY-SUPPRESSIVE COMPOSITION, ALLERGY-SUPPRESSIVE FOOD AND ALLERGY-SUPPRESSIVE AGENT” (priority 2005, dated 2006)
